From PubChem BioAssay (NCI)
Values joined by “and” are separate entries in the source; they are usually repeats but may differ in a detail not shown here. Equal values may be shown once.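 Step 1: Grow cells in 96-well plates. Step 2: Expose to compound for 48 hours at 5 concentrations. Step 3: Interpolate endpoints linearly; if unreached, use highest concentration. Abbreviation: GI50, concentration required for 50% inhibition of growth. TGI: concentration producing complete growth inhibition.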

Legend:
Experiment in all cases: NCI tumour cell line growth inhibition, 48 h
BT-549 breast = tested on: BT-549 breast
HCT-116 colon = tested on: HCT-116 colon
IGROV1 ovarian = tested on: IGROV1 ovarian
K-562 leukemia = tested on: K-562 leukemia
NCI-H460 lung = tested on: NCI-H460 lung
SF-268 CNS = tested on: SF-268 CNS
SK-MEL-2 melanoma = tested on: SK-MEL-2 melanoma
SK-MEL-28 melanoma = tested on: SK-MEL-28 melanoma
SW-620 colon = tested on: SW-620 colon
T-47D breast = tested on: T-47D breast

Row | SMILES | GI50 (BT-549 breast) [µM] | TGI (BT-549 breast) | GI50 (HCT-116 colon) [µM] | TGI (HCT-116 colon) | GI50 (IGROV1 ovarian) [µM] | TGI (IGROV1 ovarian) | GI50 (K-562 leukemia) [µM] | TGI (K-562 leukemia) | GI50 (NCI-H460 lung) [µM] | TGI (NCI-H460 lung) | GI50 (SF-268 CNS) [µM] | TGI (SF-268 CNS) | GI50 (SK-MEL-2 melanoma) [µM] | TGI (SK-MEL-2 melanoma) | GI50 (SK-MEL-28 melanoma) [µM] | TGI (SK-MEL-28 melanoma) | GI50 (SW-620 colon) [µM] | TGI (SW-620 colon) | GI50 (T-47D breast) [µM] | TGI (T-47D breast)
1 | COc1ccc(S(=O)(=O)N(C(C)=O)c2ccccc2/C=C/c2cc[n+]([O-])cc2)cc1 | 0.56 | > 10 µM | 0.542 | > 10 µM | 1.07 | > 10 µM | 0.321 | > 3.17 µM | 0.412 | > 10 µM | 1.71 | > 10 µM | 0.54 | > 10 µM | > 4.8 | > 10 µM | 0.559 | > 10 µM | 3.84 | > 10 µM
2 | O=C([O-])CC(=O)[O-].[NH-][C@@H]1CCCC[C@H]1[NH-].[Pt+4] | 32.8 | > 100 µM | 4.84 | > 100 µM | 33.5 | > 100 µM | 3.66 | > 100 µM | 3.17 | > 100 µM | 59.1 | > 100 µM | 59.9 | > 100 µM | 35.8 | > 100 µM | 2.1 | > 100 µM | 8.38 | > 100 µM
3 | CC(SCc1ccccc1)C(=O)O (stereo unspecified) | – | > 100 µM | – | > 100 µM | – | > 100 µM | – | > 100 µM | – | > 100 µM | – | > 100 µM | – | > 100 µM | – | > 100 µM | – | > 100 µM | – | > 100 µM
4 | C[N+](C)=c1ccc2nc3c(cc(NCCCNc4cc5oc6cc(=[N+](C)C)ccc-6nc5c5ccccc45)c4ccccc43)oc-2c1 | 5.97 | > 64.3 µM | 1.95 | 5.79 µM | 1.36 | 8.67 µM | 1.57 | > 25.5 µM | 1.89 | 4.06 µM | 2.17 | 9.2 µM | 15 | 45.7 µM | 3.77 | 14.7 µM | 1.77 | 4.02 µM | 3.12 | > 24.2 µM
5 | N#Cc1cc(S(=O)(=O)Nc2nc3ccccc3o2)c(SCc2ccccc2)cc1Cl | 20.5 | 41.3 µM | 17.8 | 38.6 µM | 22 | 54.8 µM | 38.8 | > 100 µM | 21.5 | 56.1 µM | 31.7 | > 100 µM | 22.3 | 53.4 µM | 18.9 | 40.4 µM | 17.9 | 35.5 µM | 23.7 | 80.9 µM
6 | C[C@@H]1CC[C@@]2(NC1)O[C@H]1C[C@H]3[C@@H]4CC[C@H]5C[C@@H](O)CC[C@]5(C)[C@H]4CC[C@]3(C)[C@H]1[C@@H]2C | – | > 100 µM | – | > 100 µM | – | > 100 µM | – | > 100 µM | – | > 100 µM | – | > 100 µM | – | > 100 µM | – | > 100 µM | – | > 100 µM | – | > 100 µM
7 | O=c1[nH]c(=O)n(C2CC(O)C(CO)O2)cc1C(F)(F)F (stereo unspecified) | 4.61 | > 100 µM | 1.7 | > 100 µM | 9.02 | > 100 µM | – | > 100 µM | 0.337 | > 100 µM | 3.14 | > 100 µM | > 100 | > 100 µM | > 62.1 | > 100 µM | 9.78 | > 100 µM | 3.34 | > 100 µM
8 | COc1cc2nccc(Oc3ccc(NC(=O)c4cn(C(C)C)c(=O)n(-c5ccc(F)cc5)c4=O)cc3F)c2cc1OC | 3.29 | 11.3 µM | 5.4 | > 100 µM | – | > 100 µM | 0.0442 | > 100 µM | 4.98 | > 100 µM | 4.51 | > 51.6 µM | > 68.1 | > 100 µM | 3.19 | 18.1 µM | 5.77 | > 100 µM | 3.23 | 34.4 µM
9 | CCC1=C(CC2NCCc3ccccc32)CC2c3cc(OC)c(OC)cc3CCN2C1 (stereo unspecified) | 9.07 | 21.2 µM and 9.89 µM | 2.86 | 11.6 µM and 2.94 µM | 4.39 | 21.6 µM and 19 µM | 2.26 | 7.41 µM and 2.1 µM | 3.28 | 11.7 µM and 3.57 µM | 3.13 | 14 µM and 6.12 µM | 4.64 | 16.6 µM and 2.64 µM | 4.35 | 14.4 µM and 9.26 µM | 3.62 | 13.4 µM and 6.81 µM | 3.9 | 16.8 µM and 5.85 µM
10 | CCN(Cc1c(F)cccc1Cl)c1ccc(CO)c(Cl)c1 | 16.5 | 31.2 µM | < 0.0172 | 12.1 µM | – | – | 0.2 | 12.6 µM | < 0.0249 | 11.2 µM | 16.4 | 31.4 µM | 0.785 | 19.9 µM | 13.1 | 27.4 µM | 0.175 | 20 µM | < 0.0153 | 0.0496 µM
11 | Cc1ccc(C(=O)NC2CC2)cc1-c1ccc2[nH]ncc2c1 | > 25 | > 25 µM | > 25 | > 25 µM | > 25 | > 25 µM | > 22 | > 25 µM | > 25 | > 25 µM | > 25 | > 25 µM | > 25 | > 25 µM | > 25 | > 25 µM | > 25 | > 25 µM | > 25 | > 25 µM
12 | CN(C)CCCNc1nc2ccccc2c2[nH]c3ccccc3c12 | 1.86 | 5.35 µM | 0.222 | 1.67 µM | 1.39 | 18.4 µM | 1.64 | 22.2 µM | 0.737 | 3.28 µM | 1.39 | 4.1 µM | 6.69 | 38.8 µM | 2.04 | 5.84 µM | 0.387 | 7.21 µM | 5.18 | 16.5 µM
13 | CNC(=O)c1cncc(/C=C/c2ccccc2Cl)c1 | > 25 | > 25 µM | > 25 | > 25 µM | > 25 | > 25 µM | > 25 | > 25 µM | > 25 | > 25 µM | > 25 | > 25 µM | > 25 | > 25 µM | > 25 | > 25 µM | > 25 | > 25 µM | > 23.6 | > 25 µM
